One experiment addresses GluN1/GluN2B NMDAR (Homo sapiens, UniProt Q05586+Q13224, Q05586:Y647S). Put plainly: two-electrode voltage clamp, Xenopus oocytes. It is filed as cell-based. (In general: In two-electrode clamp one electrode senses voltage and the other passes current.)
For a further experiment, the target named is GluN1/GluN2A NMDAR (Homo sapiens, UniProt Q05586+Q12879, Q05586:Y647S). Briefly: two-electrode voltage clamp, Xenopus oocytes. It is filed as cell-based.
GluN1/GluN2A NMDAR, sequence (Q12879 23-1464, other chains not shown): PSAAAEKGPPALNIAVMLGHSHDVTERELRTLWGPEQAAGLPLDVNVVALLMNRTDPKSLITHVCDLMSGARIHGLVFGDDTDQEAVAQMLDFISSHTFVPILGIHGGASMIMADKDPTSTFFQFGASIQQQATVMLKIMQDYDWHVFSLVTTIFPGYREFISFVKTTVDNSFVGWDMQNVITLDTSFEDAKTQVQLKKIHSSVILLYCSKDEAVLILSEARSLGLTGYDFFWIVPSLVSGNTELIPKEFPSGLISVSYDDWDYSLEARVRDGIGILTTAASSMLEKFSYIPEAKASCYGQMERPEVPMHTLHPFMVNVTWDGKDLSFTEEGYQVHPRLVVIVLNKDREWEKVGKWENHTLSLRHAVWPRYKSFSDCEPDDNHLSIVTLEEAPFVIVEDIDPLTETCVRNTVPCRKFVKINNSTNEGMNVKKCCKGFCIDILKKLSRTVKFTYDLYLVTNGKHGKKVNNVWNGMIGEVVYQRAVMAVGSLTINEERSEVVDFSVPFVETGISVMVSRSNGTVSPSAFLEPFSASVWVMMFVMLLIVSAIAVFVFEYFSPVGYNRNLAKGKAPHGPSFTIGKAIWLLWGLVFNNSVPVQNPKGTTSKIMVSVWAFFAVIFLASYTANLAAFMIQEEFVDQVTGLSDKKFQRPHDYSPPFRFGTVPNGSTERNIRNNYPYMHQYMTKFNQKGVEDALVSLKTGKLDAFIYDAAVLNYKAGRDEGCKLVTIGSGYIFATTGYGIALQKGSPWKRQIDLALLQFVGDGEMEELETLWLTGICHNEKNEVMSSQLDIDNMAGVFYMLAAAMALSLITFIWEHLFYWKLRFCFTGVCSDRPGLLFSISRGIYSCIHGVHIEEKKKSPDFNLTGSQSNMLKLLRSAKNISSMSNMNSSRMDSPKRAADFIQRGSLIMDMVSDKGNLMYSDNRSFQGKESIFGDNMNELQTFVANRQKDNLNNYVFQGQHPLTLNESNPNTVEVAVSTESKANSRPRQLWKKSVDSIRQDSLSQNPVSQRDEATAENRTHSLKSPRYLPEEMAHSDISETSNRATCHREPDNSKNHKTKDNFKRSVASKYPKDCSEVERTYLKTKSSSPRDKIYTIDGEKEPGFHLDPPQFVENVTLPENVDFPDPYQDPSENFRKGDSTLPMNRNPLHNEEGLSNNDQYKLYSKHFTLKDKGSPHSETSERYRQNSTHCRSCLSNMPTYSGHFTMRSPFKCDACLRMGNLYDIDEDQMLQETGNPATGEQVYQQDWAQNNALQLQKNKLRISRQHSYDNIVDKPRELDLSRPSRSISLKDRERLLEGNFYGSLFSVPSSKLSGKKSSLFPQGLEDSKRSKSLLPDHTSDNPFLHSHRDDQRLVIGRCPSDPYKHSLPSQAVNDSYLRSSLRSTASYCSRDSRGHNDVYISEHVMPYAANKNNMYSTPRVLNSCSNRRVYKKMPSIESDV

GluN1/GluN2B NMDAR, sequence (Q13224 27-1484, other chains not shown): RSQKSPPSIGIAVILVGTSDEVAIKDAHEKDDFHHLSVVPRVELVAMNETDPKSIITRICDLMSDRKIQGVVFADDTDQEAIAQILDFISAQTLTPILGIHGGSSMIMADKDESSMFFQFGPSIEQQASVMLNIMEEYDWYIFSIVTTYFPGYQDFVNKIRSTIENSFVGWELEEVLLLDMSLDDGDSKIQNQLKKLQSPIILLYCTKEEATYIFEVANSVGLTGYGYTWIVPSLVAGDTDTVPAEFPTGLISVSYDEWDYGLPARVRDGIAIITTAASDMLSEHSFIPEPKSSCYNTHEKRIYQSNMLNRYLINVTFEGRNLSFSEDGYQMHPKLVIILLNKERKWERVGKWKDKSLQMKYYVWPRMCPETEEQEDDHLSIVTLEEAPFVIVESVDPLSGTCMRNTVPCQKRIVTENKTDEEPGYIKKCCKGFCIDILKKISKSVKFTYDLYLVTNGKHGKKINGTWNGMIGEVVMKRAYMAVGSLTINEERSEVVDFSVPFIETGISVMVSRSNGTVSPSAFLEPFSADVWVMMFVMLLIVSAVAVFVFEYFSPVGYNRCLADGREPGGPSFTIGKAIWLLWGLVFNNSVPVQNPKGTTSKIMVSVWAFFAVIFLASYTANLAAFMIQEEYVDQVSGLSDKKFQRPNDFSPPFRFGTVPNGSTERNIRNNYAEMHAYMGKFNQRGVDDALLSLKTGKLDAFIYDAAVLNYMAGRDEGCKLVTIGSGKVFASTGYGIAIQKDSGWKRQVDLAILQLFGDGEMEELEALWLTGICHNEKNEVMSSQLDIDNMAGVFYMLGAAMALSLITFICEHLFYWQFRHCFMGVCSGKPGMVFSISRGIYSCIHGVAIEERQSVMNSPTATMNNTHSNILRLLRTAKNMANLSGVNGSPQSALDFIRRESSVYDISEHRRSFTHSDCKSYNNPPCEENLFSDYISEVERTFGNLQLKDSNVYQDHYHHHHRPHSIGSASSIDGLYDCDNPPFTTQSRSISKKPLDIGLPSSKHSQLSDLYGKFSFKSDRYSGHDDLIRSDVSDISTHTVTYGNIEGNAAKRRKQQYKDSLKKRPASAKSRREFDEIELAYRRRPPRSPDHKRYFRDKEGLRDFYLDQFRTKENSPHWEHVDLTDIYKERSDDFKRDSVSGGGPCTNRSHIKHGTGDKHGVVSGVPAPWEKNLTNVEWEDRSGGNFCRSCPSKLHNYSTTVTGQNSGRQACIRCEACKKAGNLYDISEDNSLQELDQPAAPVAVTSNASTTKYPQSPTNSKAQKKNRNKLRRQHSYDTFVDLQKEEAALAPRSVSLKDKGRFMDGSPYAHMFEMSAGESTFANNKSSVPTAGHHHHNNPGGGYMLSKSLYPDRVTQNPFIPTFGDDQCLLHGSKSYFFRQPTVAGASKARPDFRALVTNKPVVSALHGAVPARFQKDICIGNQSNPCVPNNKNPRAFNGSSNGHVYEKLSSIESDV

Turning to `NCC(=O)O` [glycine], the EC50 at GluN1/GluN2B NMDAR was determined as 0.017 µM; at GluN1/GluN2A NMDAR, 0.036 µM.

Broadly, the EC50 is the concentration giving half of the maximal effect. A lower EC50 goes with higher potency in that assay.

These data come from article doi:10.1101/2024.08.21.608984v2 (biorxiv, 2025).
